Literature values, collected in article PMC3433420 (PLoS ONE, 2012).
Where two headings read alike, the source gives them in different places.

Molecular target: SH2 and PTB domains
Settings: cited from earlier work
Excerpt: Supplement pone.0044471.s022.xlsx, sheet "Most recent PM interactions" | column: Kd || Supplement pone.0044471.s022.xlsx, sheet "All original PM interactions" | column: Kd

[1] = protein ABL2, ref Jones et al. 2006 / Kaushansky et al. Chem and Biol 2008
[2] = Protein ABL2, most recent PM interactions, ref Jones et al. 2006 / Kaushansky et al. Chem and Biol 2008

What does the source list for “PPPApYTPMSGNQd [ErbB4 pY1056, N-terminally rhodamine-labeled 13-mer phosphopeptide]”?
Kd (protein ABL2, ref Kaushansky et al. Chem and Biol 2008): 660 nM; Kd (protein PIK3R1-N, ref Kaushansky et al. Chem and Biol 2008): 540 nM; Kd (protein PIK3R1-NC, ref Kaushansky et al. Chem and Biol 2008): 1440 nM; Kd (protein PIK3R2-N, ref Kaushansky et al. Chem and Biol 2008): 200 nM; Kd (protein PIK3R2-NC, ref Kaushansky et al. Chem and Biol 2008): 460 nM; Kd (protein PIK3R3-N, ref Kaushansky et al. Chem and Biol 2008): 890 nM; Kd (protein PIK3R3-NC, ref Kaushansky et al. Chem and Biol 2008): 580 nM

Which results are given for “QNPVpYHNQPLNPd [ErbB1 pY1110, N-terminally rhodamine-labeled 13-mer phosphopeptide]”?
Kd (protein ABL1, ref Jones et al. 2006 / Kaushansky et al. Mol Biosys 2008 / Kaushansky et al. Chem and Biol 2008): 520 nM; Kd (protein ABL2, ref Jones et al. 2006 / Kaushansky et al. Mol Biosys 2008 / Kaushansky et al. Chem and Biol 2008): 60 nM; Kd (protein GRB2, ref Jones et al. 2006 / Kaushansky et al. Mol Biosys 2008 / Kaushansky et al. Chem and Biol 2008): 2000 nM; Kd (protein NCK2, ref Jones et al. 2006 / Kaushansky et al. Mol Biosys 2008 / Kaushansky et al. Chem and Biol 2008): 2000 nM; Kd (protein SHC1-PTB, ref Jones et al. 2006 / Kaushansky et al. Mol Biosys 2008 / Kaushansky et al. Chem and Biol 2008): 320 nM

Which Kd (protein ABL2, all original PM interactions, ref Jones et al. 2006 / Kaushansky et al. Chem and Biol 2008) does the source give for “PKQEpYLNPVEENd [ErbB4 pY1162, N-terminally rhodamine-labeled 13-mer phosphopeptide]” here?
The Kd was 320 nM.

What about the Kd [1] of the same substance?
The Kd was 280 nM.

What about the Kd (protein CRK, all original PM interactions, ref Jones et al. 2006 / Kaushansky et al. Chem and Biol 2008) of the same substance?
The Kd was 2000 nM.

And the Kd (protein CRKL, all original PM interactions, ref Jones et al. 2006 / Kaushansky et al. Chem and Biol 2008)?
The Kd was 2000 nM.

And the Kd (protein NCK2, all original PM interactions, ref Jones et al. 2006 / Kaushansky et al. Chem and Biol 2008)?
The Kd was 2000 nM.

And the Kd (protein PIK3R2-N, all original PM interactions, ref Jones et al. 2006 / Kaushansky et al. Chem and Biol 2008)?
The Kd was 2000 nM.

What about the Kd (protein PIK3R3-NC, all original PM interactions, ref Jones et al. 2006 / Kaushansky et al. Chem and Biol 2008) of the same substance?
The Kd was 2000 nM.

And the Kd (protein PLCG1-C, all original PM interactions, ref Jones et al. 2006 / Kaushansky et al. Chem and Biol 2008)?
The Kd was 2000 nM.

And the Kd (protein PLCG1-NC, all original PM interactions, ref Jones et al. 2006 / Kaushansky et al. Chem and Biol 2008)?
Its Kd is 2000 nM.

And the Kd (protein PTPN11-N, all original PM interactions, ref Jones et al. 2006 / Kaushansky et al. Chem and Biol 2008)?
Its Kd is 2000 nM.

And the Kd (protein RASA1-N, all original PM interactions, ref Jones et al. 2006 / Kaushansky et al. Chem and Biol 2008)?
Its Kd is 2000 nM.

What about the Kd (protein RASA1-N, ref Jones et al. 2006 / Kaushansky et al. Chem and Biol 2008) of the same substance?
Its Kd is 980 nM.

And the Kd (protein SLA, all original PM interactions, ref Jones et al. 2006 / Kaushansky et al. Chem and Biol 2008)?
Its Kd is 2000 nM.

What about the Kd (protein SYK-NC, all original PM interactions, ref Jones et al. 2006 / Kaushansky et al. Chem and Biol 2008) of the same substance?
The Kd was 2000 nM.

And the Kd (protein VAV1, all original PM interactions, ref Jones et al. 2006 / Kaushansky et al. Chem and Biol 2008)?
The Kd was 2000 nM.

And the Kd (protein VAV2, all original PM interactions, ref Jones et al. 2006 / Kaushansky et al. Chem and Biol 2008)?
The Kd was 2000 nM.

And the Kd (protein VAV2, ref Jones et al. 2006 / Kaushansky et al. Chem and Biol 2008)?
The Kd was 100 nM.

And the Kd (protein VAV3, all original PM interactions, ref Jones et al. 2006 / Kaushansky et al. Chem and Biol 2008)?
Its Kd is 2000 nM.

What does the source list for KGSTAENAEpYLRVAPQSd [ErbB1 1197]?
Kd (Protein ABL2, most recent PM interactions, ref Jones et al. 2006 / Kaushansky et al. Mol Biosys 2008 / Kaushansky et al. Chem and Biol 2008): 210 nM; Kd (Protein PIK3R3-NC, most recent PM interactions, ref Jones et al. 2006 / Kaushansky et al. Mol Biosys 2008 / Kaushansky et al. Chem and Biol 2008): 1110 nM; Kd (Protein SHC1-PTB, most recent PM interactions, ref Jones et al. 2006 / Kaushansky et al. Mol Biosys 2008 / Kaushansky et al. Chem and Biol 2008): 320 nM

For QSLLSPSSGpYMPMNQGN [ErbB3 1054], which Kd [2] is on record?
Its Kd is 330 nM.

And the Kd (Protein ITK, most recent PM interactions, ref Jones et al. 2006 / Kaushansky et al. Chem and Biol 2008)?
The Kd was 1670 nM.

What about the Kd (Protein PIK3R1-C, most recent PM interactions, ref Jones et al. 2006 / Kaushansky et al. Chem and Biol 2008) of the same substance?
The Kd was 1000 nM.

What about the Kd (Protein PIK3R1-N, most recent PM interactions, ref Jones et al. 2006 / Kaushansky et al. Chem and Biol 2008) of the same substance?
The Kd was 570 nM.

And the Kd (Protein PIK3R1-NC, most recent PM interactions, ref Jones et al. 2006 / Kaushansky et al. Chem and Biol 2008)?
Its Kd is 920 nM.

What about the Kd (Protein PIK3R2-N, most recent PM interactions, ref Jones et al. 2006 / Kaushansky et al. Chem and Biol 2008) of the same substance?
Its Kd is 890 nM.

What about the Kd (Protein PIK3R2-NC, most recent PM interactions, ref Jones et al. 2006 / Kaushansky et al. Chem and Biol 2008) of the same substance?
Its Kd is 90 nM.

And the Kd (Protein PIK3R3-C, most recent PM interactions, ref Jones et al. 2006 / Kaushansky et al. Chem and Biol 2008)?
The Kd was 110 nM.

What about the Kd (Protein PIK3R3-N, most recent PM interactions, ref Jones et al. 2006 / Kaushansky et al. Chem and Biol 2008) of the same substance?
The Kd was 1320 nM.

And the Kd (Protein PIK3R3-NC, most recent PM interactions, ref Jones et al. 2006 / Kaushansky et al. Chem and Biol 2008)?
Its Kd is 490 nM.

And the Kd (Protein SHB, most recent PM interactions, ref Jones et al. 2006 / Kaushansky et al. Chem and Biol 2008)?
The Kd was 1370 nM.

And the Kd (Protein SHF, most recent PM interactions, ref Jones et al. 2006 / Kaushansky et al. Chem and Biol 2008)?
Its Kd is 1230 nM.

And the Kd (Protein SYK-C, most recent PM interactions, ref Jones et al. 2006 / Kaushansky et al. Chem and Biol 2008)?
Its Kd is 1180 nM.

For “LGYEpYMDVGSDLd [ErbB3 pY1224, N-terminally rhodamine-labeled 13-mer phosphopeptide]”, which Kd (Protein PLCG2-NC, original PM interactions, ref Jones et al. 2006 / Kaushansky et al. Chem and Biol 2008) is on record?
The Kd was 2000 nM.

And the Kd (Protein RASA1-N, original PM interactions, ref Jones et al. 2006 / Kaushansky et al. Chem and Biol 2008)?
The Kd was 2000 nM.

And the Kd (Protein RASA1-NC, original PM interactions, ref Jones et al. 2006 / Kaushansky et al. Chem and Biol 2008)?
The Kd was 2000 nM.

What about the Kd (Protein SLA, original PM interactions, ref Jones et al. 2006 / Kaushansky et al. Chem and Biol 2008) of the same substance?
The Kd was 2000 nM.

And the Kd [1]?
Its Kd is 1130 nM.

And the Kd (protein PIK3R3-NC, ref Jones et al. 2006 / Kaushansky et al. Chem and Biol 2008)?
The Kd was 1510 nM.

With LPPDDKQLLpYSEAKTPI [ErbB3 868] as the substance, how does the Kd [2] read?
The Kd was 70 nM.

What about the Kd (Protein BCAR3, most recent PM interactions, ref Jones et al. 2006 / Kaushansky et al. Chem and Biol 2008) of the same substance?
The Kd was 1780 nM.

What about the Kd (Protein CRKL, most recent PM interactions, ref Jones et al. 2006 / Kaushansky et al. Chem and Biol 2008) of the same substance?
The Kd was 1760 nM.

What about the Kd (Protein RASA1-N, most recent PM interactions, ref Jones et al. 2006 / Kaushansky et al. Chem and Biol 2008) of the same substance?
The Kd was 950 nM.

What about the Kd (Protein SYK-NC, most recent PM interactions, ref Jones et al. 2006 / Kaushansky et al. Chem and Biol 2008) of the same substance?
Its Kd is 920 nM.
